Experimental data published in patent publication US9884063B2, “Amido-substituted azole compounds” (Bayer Pharma Aktiengesellschaft, priority 2014, dated 2018).

Columns and labels:
TNKS2 = target: T1, TNKS2 (Homo sapiens, UniProt Q9H2K2); assay: Modified TNKS2 Assay 3 (BPS kit #80578, biotin-NAD+, 96 well); assay type: biochemical; details: human TNKS2, BPS kit #80578, 96 well
T1 sequence (Q9H2K2 1-1166): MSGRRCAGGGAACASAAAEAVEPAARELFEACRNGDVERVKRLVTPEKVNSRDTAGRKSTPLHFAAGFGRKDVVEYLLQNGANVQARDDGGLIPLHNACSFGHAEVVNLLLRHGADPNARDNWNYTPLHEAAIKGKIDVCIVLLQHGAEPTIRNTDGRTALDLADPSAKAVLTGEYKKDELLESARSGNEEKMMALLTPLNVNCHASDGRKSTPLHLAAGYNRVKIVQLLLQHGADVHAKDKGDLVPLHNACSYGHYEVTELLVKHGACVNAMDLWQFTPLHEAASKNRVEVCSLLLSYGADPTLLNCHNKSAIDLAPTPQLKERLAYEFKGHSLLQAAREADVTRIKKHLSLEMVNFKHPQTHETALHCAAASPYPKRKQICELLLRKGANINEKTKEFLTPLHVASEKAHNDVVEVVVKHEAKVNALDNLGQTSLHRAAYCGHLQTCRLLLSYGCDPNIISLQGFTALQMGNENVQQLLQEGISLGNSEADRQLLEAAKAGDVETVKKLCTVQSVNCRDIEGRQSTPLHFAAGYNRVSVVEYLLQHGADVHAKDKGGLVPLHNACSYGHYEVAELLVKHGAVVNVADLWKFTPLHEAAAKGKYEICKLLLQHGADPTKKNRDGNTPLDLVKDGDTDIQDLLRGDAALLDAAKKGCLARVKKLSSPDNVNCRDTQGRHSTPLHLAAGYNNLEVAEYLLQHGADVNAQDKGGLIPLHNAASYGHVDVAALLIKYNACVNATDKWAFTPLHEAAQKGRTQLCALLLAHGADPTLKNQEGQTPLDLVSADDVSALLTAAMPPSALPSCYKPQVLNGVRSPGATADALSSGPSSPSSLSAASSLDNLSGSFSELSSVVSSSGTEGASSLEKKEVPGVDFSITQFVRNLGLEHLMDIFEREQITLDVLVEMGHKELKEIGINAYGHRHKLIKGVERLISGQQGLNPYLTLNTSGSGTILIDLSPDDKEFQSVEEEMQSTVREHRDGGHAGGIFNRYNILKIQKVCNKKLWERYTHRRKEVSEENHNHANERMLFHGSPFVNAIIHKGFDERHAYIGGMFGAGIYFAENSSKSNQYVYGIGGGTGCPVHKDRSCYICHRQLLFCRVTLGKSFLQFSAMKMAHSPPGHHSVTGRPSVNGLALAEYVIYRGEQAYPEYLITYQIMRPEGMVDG
Procedure: The potency of the compounds against human TNKS2 according to the invention was assessed using a commercially available biotin/streptavidin binding assay kits from BPS Bioscience, San Diego, USA (Catalog #80578 for TNKS2). The incorporation of a biotin-labeled NAD+ during the […] catalyzed ribosylation of a suitable protein substrate was detected using with a streptavidin-HRP coupled chemi-luminescent readout. The intensity of the readout signal is proportional to the incorporated NAD^+. Inhibition of TNKS2 leads to a decreased incorporation of NAD^+ and consequently to a lower readout signal intensity in the corresponding TNKS2 assays. The concentration of a test compound that inhibits the enzyme activity by 50% (corresponds to half of the normed readout signal intensity) is reported as IC50. The assay conducted in a 96 well MTP format according to the manufacturer's protocol and using a BMG Pherastar MTP reader [BMG-Labtech, Offenburg, Germany].

[1] = system: wildtype Wnt signaling cascade; assay: HEK293 TOP Assay (Super TopFlash luciferase reporter, Wnt-3a stimulated); assay type: cell-based; details: Homo sapiens, HEK293, 16 h, HEK293 TOP reporter cell line, Wnt-3a at EC50, 16 hours incubation, compound dilution series 50 μM to 15 nM
Method in brief: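 Compounds (50 μM down to 15 nM, 3.16-fold steps, in CAFTY buffer pH 7.4, 2 mM Ca2+, 0.01% BSA) tested in parallel on TOP and FOP HEK293 reporter lines to define selective wildtype Wnt inhibition. Pathway driven by recombinant human Wnt-3a applied at 2500–5 ng/ml in two-fold dilutions.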

[2] = system: HEK293 FOP control reporter cell line; assay: HEK293 FOP Assay (FOP control vector luciferase reporter); assay type: cell-based; details: Homo sapiens; HEK293 FOP control reporter cell line, 16 hours incubation, compound dilution series 50 μM to 15 nM
Method in brief: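 Compound series 50 μM to 15 nM, 3.16-fold steps, were diluted in CAFTY buffer (pH 7.4, 2 mM Ca2+, 0.01% BSA) and tested alongside the TOP reporter line. Human Wnt-3a was added at 2500–5 ng/ml in two-fold steps. The control HEK293 line stably holds an FOP vector whose TCF elements are randomized and non-functional.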

SMILES	IC50 (TNKS2)	IC50 [1]	IC50 [2]
CN1CCN(CCNC(=O)c2[nH]cnc2C(=O)Nc2ccc(NC(=O)c3ccc(F)cc3Cl)cc2)CC1 [Example 238, N^4-{4-[(2-chloro-4-fluorobenzoyl)amino]phenyl}-N^5-[2-(4-methylpiperazin-1-yl)ethyl]-1H-imidazole-4,5-dicarboxamide]	2 nM	180 nM	29000 nM
O=C(Nc1ccc(NC(=O)c2nc[nH]c2C(=O)NCCN2CCCC2)cc1)c1ccccc1Cl [Example 168, N^4-{4-[(2-chlorobenzoyl)amino]phenyl}-N^5-[2-(pyrrolidin-1-yl)ethyl]-1H-imidazole-4,5-dicarboxamide]	< 0.5 nM	80 nM	27000 nM
CC1CCCCN1CCNC(=O)c1[nH]cnc1C(=O)Nc1ccc(NC(=O)c2ccccc2Cl)cc1 (stereo not drawn) [Example 153, N^4-{4-[(2-chlorobenzoyl)amino]phenyl}-N^5-[2-(2-methylpiperidin-1-yl)ethyl]-1H-imidazole-4,5-dicarboxamide]	5 nM	190 nM	35000 nM
O=C(Nc1ccc(NC(=O)c2nc[nH]c2C(=O)NCCN2CCCC(O)C2)cc1)c1ccc(F)cc1Cl (stereo not drawn) [Example 229, N^4-{4-[(2-chloro-4-fluorobenzoyl)amino]phenyl}-N^5-[2-(3-hydroxypiperidin-1-yl)ethyl]-1H-imidazole-4,5-dicarboxamide]	4 nM	110 nM	44500 nM
CC1CCN(CCNC(=O)c2[nH]cnc2C(=O)Nc2ccc(NC(=O)c3ccccc3Cl)cc2)CC1 [Example 163, N^4-{4-[(2-chlorobenzoyl)amino]phenyl}-N^5-[2-(4-methylpiperidin-1-yl)ethyl]-1H-imidazole-4,5-dicarboxamide]	10 nM	100 nM	37000 nM
O=C(Nc1ccc(NC(=O)c2nc[nH]c2C(=O)NCCCCN2CCCCC2)cc1)c1ccc(F)cc1Cl [Example 196, N^4-{4-[(2-chloro-4-fluorobenzoyl)amino]phenyl}-N^5-[4-(piperidin-1-yl)butyl]-1H-imidazole-4,5-dicarboxamide]	20 nM	650 nM	30000 nM
O=C(Nc1ccc(NC(=O)c2nc[nH]c2C(=O)NCCCN2CCOCC2)cc1)c1ccc(F)cc1Cl [Example 204, N^4-{4-[(2-chloro-4-fluorobenzoyl)amino]phenyl}-N^5-[3-(morpholin-4-yl)propyl]-1H-imidazole-4,5-dicarboxamide]	20 nM	310 nM	34500 nM
CC1CCCCN1CCNC(=O)c1[nH]cnc1C(=O)Nc1ccc(NC(=O)c2ccc(F)cc2Cl)cc1 (stereo not drawn) [Example 191, N^4-{4-[(2-chloro-4-fluorobenzoyl)amino]phenyl}-N^5-[2-(2-methylpiperidin-1-yl)ethyl]-1H-imidazole-4,5-dicarboxamide]	2 nM	40 nM	31000 nM
O=C(Nc1ccc(NC(=O)c2nc[nH]c2C(=O)NCCN2CCC2)cc1)c1ccccc1Cl [Example 190, N^5-[2-(azetidin-1-yl)ethyl]-N4-{4-[(2-chlorobenzoyl)amino]phenyl}-1H-imidazole-4,5-dicarboxamide]	2 nM	190 nM	18000 nM
